From ChEMBL document CHEMBL4308875, “Synthesis, antituberculosis studies and biological evaluation of new quinoline derivatives carrying 1,2,4-oxadiazole moiety” (Bioorg Med Chem Lett, 2019)
≈ marks a conversion by molar mass, not a printed value.

Tests used:
[1] = tested on: Mycobacterium tuberculosis; assay: Antitubercular activity against Mycobacterium tuberculosis H37Rv after 15 days by turbidometric method; format: functional; conditions: 360 h
[2] = tested on: HepG2; assay: Cytotoxicity against human HepG2 cells after 24 hrs by MTT assay; format: cell-based; conditions: HepG2, 24 h
[3] = tested on: Escherichia coli; assay: Antibacterial activity against Escherichia coli ATCC 25922 after 15 days by turbidometric method; format: functional; conditions: ATCC 25922, 360 h
[4] = tested on: Acinetobacter baumannii; assay: Antibacterial activity against Acinetobacter baumannii ATCC 19606 after 15 days by turbidometric method; format: functional; conditions: ATCC 19606 = CIP 70.34 = JCM 6841
[5] = tested on: Staphylococcus aureus; assay: Antibacterial activity against Staphylococcus aureus ATCC 33591 after 15 days by turbidometric method; format: functional; conditions: ATCC 33591, 360 h
[6] = tested on: Enterococcus faecium; assay: Antibacterial activity against Enterococcus faecium ATCC 51559 after 15 days by turbidometric method; format: functional; conditions: ATCC 51559, 360 h
[7] = tested on: Pseudomonas aeruginosa; assay: Antibacterial activity against Pseudomonas aeruginosa ATCC 15442 after 15 days by turbidometric method; format: functional; conditions: ATCC 15442, 360 h
[8] = tested on: Klebsiella pneumoniae; assay: Antibacterial activity against Klebsiella pneumoniae ATCC 700603 after 15 days by turbidometric method; format: functional; conditions: Klebsiella pneumoniae, 700603, 360 h
[9] = tested on: Mycobacterium tuberculosis; assay: Bacteriostatic activity against Mycobacterium tuberculosis H37Rv assessed as colony forming units at 0.002 to 64 ug/ml measured day 3 post dose by time kill assay (reference value: 0 log10CFU/ml); format: functional
[10] = tested on: Mycobacterium tuberculosis; assay: Bacteriostatic activity against Mycobacterium tuberculosis H37Rv assessed as colony forming units at 0.002 to 64 ug/ml measured day 7 post dose by time kill assay (reference value: 0 log10CFU/ml); format: functional
[11] = tested on: Mycobacterium tuberculosis; assay: Bacteriostatic activity against Mycobacterium tuberculosis H37Rv assessed as colony forming units at 0.002 to 64 ug/ml measured day 14 post dose by time kill assay (reference value: 0 log10CFU/ml); format: functional
[12] = tested on: Mycobacterium tuberculosis; assay: Bacteriostatic activity against Mycobacterium tuberculosis H37Rv assessed as colony forming units at 0.002 to 64 ug/ml measured day 21 post dose by time kill assay (reference value: 0 log10CFU/ml); format: functional

c1cc(-c2ccc3c(N4CCN(Cc5noc(C6CCCC6)n5)CC4)ccnc3c2)ccn1 was tested. Which MIC [1] did it give?
Its MIC is 2 µg/mL (≈ 4.54 µM).

With COc1cc(OC)cc(-c2nc(CN3CCN(c4ccnc5cc(-c6cc(F)cc(F)c6)ccc45)CC3)no2)c1 as the molecule, how does the MIC [1] read?
Its MIC is 256 µg/mL (≈ 471 µM).

Fc1cc(F)cc(-c2ccc3c(N4CCN(Cc5noc(C6CCCC6)n5)CC4)ccnc3c2)c1 was tested. Which MIC [1] did it give?
Its MIC is 128 µg/mL (≈ 269 µM).

Fc1cc(F)cc(-c2nc(CN3CCN(c4ccnc5cc(-c6ccncc6)ccc45)CC3)no2)c1 was tested. Which MIC [1] did it give?
The MIC was 16 µg/mL (≈ 33 µM).

Which MIC [1] does the source give for Cc1cccc(-c2nc(CN3CCN(c4ccnc5cc(-c6cc(F)cc(F)c6)ccc45)CC3)no2)c1C here?
Its MIC is 32 µg/mL (≈ 62.6 µM).

Fc1cc(F)cc(-c2ccc3c(N4CCN(Cc5noc(-c6cc(F)cc(F)c6)n5)CC4)ccnc3c2)c1 was tested. Which MIC [1] did it give?
The MIC was 64 µg/mL (≈ 123 µM).

With N#Cc1cccc(-c2nc(CN3CCN(c4ccnc5cc(-c6ccncc6)ccc45)CC3)no2)c1 as the molecule, how does the MIC [1] read?
Its MIC is 32 µg/mL (≈ 67.6 µM).

How did the MIC [1] turn out when Cc1cccc(-c2nc(CN3CCN(c4ccnc5cc(Cl)ccc45)CC3)no2)c1C was run?
Its MIC is 64 µg/mL (≈ 147 µM).

How did the IC50 [2] turn out when COc1ccc(CCN2CCC(Nc3nc4ccccc4n3Cc3ccc(F)cc3)CC2)cc1 [ASTEMIZOLE] was run?
The IC50 was 7.97 µM.

With O=C(O)c1cn(C2CC2)c2cc(N3CCNCC3)c(F)cc2c1=O [CIPROFLOXACIN] as the molecule, how does the MIC [3] read?
The MIC was 7 ng/mL (≈ 0.0211 µM).

And the MIC [4]?
The MIC was < 1 µg/mL.

What about the MIC [5] of the same molecule?
The MIC was < 1 µg/mL.

And the MIC [6]?
Its MIC is 8 µg/mL (≈ 24.1 µM).

And the MIC [7]?
Its MIC is < 1 µg/mL.

What about the MIC [8] of the same molecule?
The MIC was < 1 µg/mL.

For NNC(=O)c1ccncc1 [ISONIAZID], which MIC [1] is on record?
Its MIC is 0.015 µg/mL (≈ 0.109 µM).

Which MIC [1] does the source give for CO[C@H]1/C=C/O[C@@]2(C)Oc3c(C)c(O)c4c(O)c(c(/C=N/N5CCN(C)CC5)c(O)c4c3C2=O)NC(=O)/C(C)=C\C=C\[C@H](C)[C@H](O)[C@@H](C)[C@@H](O)[C@@H](C)[C@H](OC(C)=O)[C@@H]1C [RIFAMPIN] here?
Its MIC is 0.03 µg/mL (≈ 0.0365 µM).

What about the Emax [9] of the same molecule?
The Emax was 4.2 log10CFU/ml.

And the Emax [10]?
The Emax was 6.2 log10CFU/ml.

And the Emax [11]?
Its Emax is 6.2 log10CFU/ml.

And the Emax [12]?
Its Emax is 6.3 log10CFU/ml.

With CN[C@H](CC(C)C)C(=O)N[C@H]1C(=O)N[C@@H](CC(N)=O)C(=O)N[C@H]2C(=O)N[C@H]3C(=O)N[C@H](C(=O)N[C@H](C(=O)O)c4cc(O)cc(O)c4-c4cc3ccc4O)[C@H](O)c3ccc(c(Cl)c3)Oc3cc2cc(c3O[C@@H]2O[C@H](CO)[C@@H](O)[C@H](O)[C@H]2O[C@H]2C[C@](C)(N)[C@H](O)[C@H](C)O2)Oc2ccc(cc2Cl)[C@H]1O [VANCOMYCIN] as the molecule, how does the MIC [3] read?
Its MIC is > 512000 ng/mL.

What about the MIC [4] of the same molecule?
Its MIC is 256 µg/mL (≈ 177 µM).

What about the MIC [6] of the same molecule?
Its MIC is < 1 µg/mL.

What about the MIC [7] of the same molecule?
The MIC was 512 µg/mL (≈ 353 µM).

What about the MIC [8] of the same molecule?
Its MIC is 512 µg/mL (≈ 353 µM).
